Holding throughout (assay type): functional
In assay [1] the test system is Rattus norvegicus. In words: Gastric antisecretory activity at the dose of 100 mg/kg in pylorus lygated rats.
For assay [2], the species on record is Rattus norvegicus. The experiment in a line: Dose required to inhibit gastric secretory activity in pylorus lygated rats. Conditions: Stomach.
The species named for assay [3] is Rattus norvegicus. The experiment in a line: Dose required to inhibit ulcer induced by stress in rats.

Data on 38 compounds can be found in ChEMBL document CHEMBL1122344, “Pyridazinones. 2. Synthesis and antisecretory and antiulcer activities of thiourea and 2-cyanoguanidine derivatives” (1983).

Each structure is given as a SMILES string.

As for `CCC/N=C(/NC#N)NCCCn1nc(C)ccc1=O`, the inhibition in vivo at 100 mg/kg in assay [1] stood at 17.5%.

Consider `O=c1ccc(-c2ccccc2)nn1CCCCNC(=S)Nc1ccccc1`, for which the ED50 in assay [2] and in assay [3] was more than 100 mg/kg throughout. In assay [1], the inhibition in vivo at 100 mg/kg came out at 38.4%.

Regarding `O=c1ccc(-c2ccccc2)nn1CCCCNC(=S)NCc1ccccc1`, in assay [1], the inhibition in vivo at 100 mg/kg worked out at 5.4%.

For the compound `C/N=C(/NC#N)NCCCCn1nc(-c2ccc(Cl)cc2)ccc1=O`, the ED50 in assay [2] turned out to be 100 mg/kg. In assay [1], the inhibition in vivo at 100 mg/kg was 51%.

Take `CN(C)/C(=N/CCCCCn1nc(-c2ccccc2)ccc1=O)NC#N`: the ED50 in assay [2] turned out to be 81.5 mg/kg; in assay [3] it was 53.1 mg/kg. In addition, in assay [1], the inhibition in vivo at 100 mg/kg was found to be 63.9%.

For `C/N=C(\S)NCCCCCCn1nc(-c2ccccc2)ccc1=O`, the inhibition in vivo at 100 mg/kg in assay [1] is 22.2%.

On to `CC/N=C(\S)NCCCn1nc(-c2ccccc2)ccc1=O`, for which the ED50 was more than 100 mg/kg in assay [2] and 88.2 mg/kg in assay [3]. The inhibition in vivo at 100 mg/kg in assay [1] was 39%.

Turning to `O=c1ccc(-c2ccccc2)nn1CCCCNC(=S)NC1CCCCC1`, the inhibition in vivo at 100 mg/kg in assay [1] is 18.1%.

For `CC/N=C(/NC#N)NCCCn1nc(C)ccc1=O`, in assay [2], the ED50 was more than 100 mg/kg. In addition, the inhibition in vivo at 100 mg/kg in assay [1] was found to be 34.5%.

For the compound `C/N=C(\NC#N)NCCCCn1nc(-c2ccccc2)ccc1=O`, in assay [1], the inhibition in vivo at 100 mg/kg amounted to 79%.

`CC/N=C(/NC#N)NCCCCn1nc(-c2ccccc2)cc(C)c1=O` had an ED50 in assay [2] of more than 100 mg/kg. For the same compound, in assay [1], the inhibition in vivo at 100 mg/kg stood at 42.5%.

Turning to `N#CNC(=N)NCCCCCn1nc(-c2ccccc2)ccc1=O`, the 50% effective dose (ED50) in assay [2] was more than 100 mg/kg. Further, in assay [1], the inhibition in vivo at 100 mg/kg is 31%.

Compound `O=c1ccc(-c2ccccc2)nn1CCCCNC(=S)Nc1ccc(Cl)cc1` came in with an ED50 in assay [2] of more than 100 mg/kg. Further, the inhibition in vivo at 100 mg/kg in assay [1] was 43.2%.

On to `O=c1ccc(-c2ccccc2)nn1CCCNC(=S)NC1CCCCC1`, for which the inhibition in vivo at 100 mg/kg in assay [1] is 23.6%.

For `N#CNC(=N)NCCCCn1nc(-c2ccccc2)ccc1=O`, the ED50 stood at 77.2 mg/kg in assay [2] and 59.3 mg/kg in assay [3]. The inhibition in vivo at 100 mg/kg in assay [1] was 61.2%.

Turning to `N/C(S)=N/CCCCn1nc(-c2ccccc2)ccc1=O`, the ED50 in assay [2] came to 36.3 mg/kg. Also, the inhibition in vivo at 100 mg/kg in assay [1] is 72%.

In turn, `C/N=C(/NC#N)NCCCCn1nc(C)ccc1=O` displayed an ED50 in assay [2] of more than 100 mg/kg. Moreover, the inhibition in vivo at 100 mg/kg in assay [1] stood at 23.5%.

Take `CC/N=C(/NC#N)NCCCCCCn1nc(-c2ccccc2)ccc1=O`: the ED50 in assay [2] and in assay [3] was more than 100 mg/kg throughout. In assay [1], the inhibition in vivo at 100 mg/kg was determined as 29.1%.

As to `C#CCN/C(=N/CCCCn1nc(-c2ccccc2)ccc1=O)NC#N`, the inhibition in vivo at 100 mg/kg in assay [1] is -12.9%.

On to `O=c1ccc(-c2ccccc2)nn1CCCC/N=C(\S)Nc1cccc(F)c1`, for which the ED50 in assay [2] is more than 100 mg/kg. Besides, the inhibition in vivo at 100 mg/kg in assay [1] worked out at 30.4%.

The compound `CC/N=C(\S)NCCCCCn1nc(-c2ccccc2)ccc1=O` had a median effective dose (ED50) in assay [2] of 51.8 mg/kg. In assay [1], the inhibition in vivo at 100 mg/kg was 66.4%.

The compound `CCC/N=C(/NC#N)NCCCCCn1nc(-c2ccccc2)ccc1=O` displayed an ED50 in assay [2] of more than 100 mg/kg. Further, in assay [1], the inhibition in vivo at 100 mg/kg amounted to 27.5%.

For `C/N=C(\S)NCCn1nc(-c2ccccc2)ccc1=O`, the inhibition in vivo at 100 mg/kg in assay [1] turned out to be 23.3%. Moreover, the 50% effective dose (ED50) in assay [3] is more than 100 mg/kg.

Consider `O=c1ccc(-c2ccccc2)nn1CCCNC(=S)Nc1ccccc1`, for which, in assay [1], the inhibition in vivo at 100 mg/kg came out at 12.1%.

In the case of `N#CNC(=N)NCCCCCCn1nc(-c2ccccc2)ccc1=O`, the inhibition in vivo at 100 mg/kg in assay [1] worked out at 20.5%.

With `C/N=C(\S)NCCCCCCn1nc(C)ccc1=O`, the inhibition in vivo at 100 mg/kg in assay [1] is -12.5%.

`C/N=C(/NC#N)NCCCCn1nc(N2CCN(C)CC2)ccc1=O`: the inhibition in vivo at 100 mg/kg in assay [1] amounted to 7.9%.

Turning to `O=c1ccc(-c2ccccc2)nn1CCNC(=S)NC1CCCCC1`, in assay [1], the inhibition in vivo at 100 mg/kg came to 12.3%.

For the compound `N#CNC(=N)NCCCn1nc(-c2ccccc2)ccc1=O`, in assay [2], the ED50 is more than 100 mg/kg. In addition, the inhibition in vivo at 100 mg/kg in assay [1] worked out at 33.3%.

Regarding `C/N=C(/NC#N)NCCCCn1nc(-c2ccccc2)cc(C)c1=O`, the 50% effect level in assay [2] (ED50) was put at a dose of 60.8 mg/kg. In assay [1], the inhibition in vivo at 100 mg/kg was determined as 68.6%.

The compound `CC(C)C/N=C(\S)NCCCCn1nc(-c2ccccc2)ccc1=O` showed an ED50 in assay [2] of more than 100 mg/kg. Also, the inhibition in vivo at 100 mg/kg in assay [1] stood at 35.8%.

On to `C/N=C(/NC#N)NCCCn1nc(C)ccc1=O`, for which the inhibition in vivo at 100 mg/kg in assay [1] turned out to be 6.8%.

On to `CN(C)/C(=N/CCCCn1nc(-c2ccccc2)ccc1=O)NC#N`, for which the ED50 worked out at 30.3 mg/kg in assay [2] and 52.9 mg/kg in assay [3]. Further, the inhibition in vivo at 100 mg/kg in assay [1] worked out at 80.7%.

For the compound `C/N=C(/NC#N)NCCCCn1nc(N2CCCC2)ccc1=O`, the inhibition in vivo at 100 mg/kg in assay [1] was -1%.

Turning to `C/N=C(/NC#N)N(C)CCCCn1nc(-c2ccccc2)ccc1=O`, the median effective dose (ED50) in assay [2] was more than 100 mg/kg. The inhibition in vivo at 100 mg/kg in assay [1] stood at 27%.

For the compound `CC/N=C(/NC#N)NCCCCn1nc(C)ccc1=O`, in assay [1], the inhibition in vivo at 100 mg/kg came out at 13.5%.

`C/N=C(/NC#N)NCCCn1nc(-c2ccccc2)ccc1=O`: the ED50 in assay [2] was more than 100 mg/kg; in assay [3] it was 78.1 mg/kg. Also, in assay [1], the inhibition in vivo at 100 mg/kg was found to be 40.5%.

Turning to `CN/C(=N\CCSCc1nc[nH]c1C)NC#N` [CIMETIDINE], the inhibition in vivo at 100 mg/kg in assay [1] turned out to be 80.6%. The compound also gave an ED50 in assay [3] of 43.2 mg/kg.
